# Assay results: patent US20050033056A1, “Hydroxylated indole derivatives and uses thereof” (priority 2001, published 2005)
# Legend:
# [1] = test system: pooled human liver microsomal preparations (HLM); assay: Compound 1 metabolism / metabolite formation in reconstituted system with pooled HLM; assay type: in vitro ADME; settings: estimated by UV absorbance at 270 nm, metabolite formed or Compound 1 left after 1 hour with NADPH
# Method: (§1) The metabolism of Compound 1 was determined by the disappearance of Compound 1 or the appearance of Compound 1 metabolites in reaction mixtures as compared to respective controls. Compound 1 was incubated in the reconstituted in vitro reaction systems containing pooled human liver S9 fractions, microsomal preparations, or recombinant hepatic CYP forms, including CYP1A2, CYP2C9, CYP2C19, CYP2D6, CYP2E1, and CYP3A4. The reaction mixture (total volume of 250 μL) contained 0.5 mg of liver microsomal protein, 50 or 25 pmol of recombinant CYP, and Compound 1 (50-80 μM) in 50 mM Tris buffer containing 15 mM MgCl2 (pH 7.4). After incubating at 37° C. with gentle shaking for 1 minute, the reaction was initiated by adding 25 μL of NADPH solution (20 mg/mL), and was carried out for 1 hour. The reaction was terminated by quickly cooling the test tube on ice, followed by the addition of an equal volume of 100% methanol. The samples were centrifuged in a desktop centrifuge at 14,000 rpm for 5 minutes, and the supernatants were filtered through syringe filters (13 mm, 0.45 μm). The filtrates were subjected to analysis using LC/MS (ion trap) or LC/MS/MS.
# 1. […] The detector was monitored at 270 nm, which is the UVmax of Compound 1 predetermined by scanning between 225-400 nm using a photodiode array detector (PDA). […]
# CYP2C19 = CYP2C19 (Homo sapiens, UniProt P33261); assay: Compound 1 metabolism / metabolite formation by recombinant CYP2C19; assay type: in vitro ADME; design: purchased Gentest Corp. (Woburn, Mass.); host or cells: insect cells (microsomal preparation)
# Method: as §1
# (§2) 1. LC/MS (LCQ ion trap mass spectrometer, Finnigan Corp., San Jose, Calif.): Hewlett Packard 1100 HPLC system (Waldbronn, Germany) consisted of a binary pump, an autosampler, a column compartment unit, and an online variable wavelength UV detector (VWD). The detector was monitored at 270 nm, which is the UVmax of Compound 1 predetermined by scanning between 225-400 nm using a photodiode array detector (PDA). The metabolites were separated on a Hewlett Packard Eclipse C18 column (150×2.1 mm). The mobile phases were 10 nmM ammonium acetate at pH 4.8 (A) and acetonitrile (B). The gradient (B) was 10% (0-6 minutes), 22% (12-22 minutes), 90% (25-30 minutes), and 10% (31 minutes and after). The flow rate was 0.25 mL/minute. Software Navigator (Version 1.2, Finnigan Corp.) was used to control the HPLC and MS and to acquire the data. The MS was operated at positive electrospray ionization (ESI) with 5.2 kV ionization potential and 220° C. heated capillary temperature. The product ion spectra were generated under 24V collision energy, which was optimized for the fragmentation of Compound 1.
# 2. LC/MS/MS (SCIEX API2000 triple quadrupole mass spectrometer, PE Biosystem, Foster City, Calif.): The same HPLC system described above was coupled with a tandem mass spectrometer. The metabolites were separated on a Sulpelco Discovery C18 column (150×2.1 mm), and the mobile phase described previously was run at 1.0 mL/min with a 1:10 split. The gradient (B) was 20% (0-6 minutes), 60% (14-18 minutes), 95% (20-24 minutes), and 20% (25 minutes and after). The operation of the HPLC and the MS/MS was controlled by MacChrom (Version 1.6, PE Biosystem). […]
# CYP2D6 = CYP2D6 (Homo sapiens, UniProt P10635); assay: Compound 1 metabolism / metabolite formation by recombinant CYP2D6; assay type: in vitro ADME; design: purchased Gentest Corp. (Woburn, Mass.); host or cells: insect cells (microsomal preparation); settings: recombinant CYP2D6, NADPH
# Method: as §1
# as §2, with “The MS was operated at positive electrospray ionization (ESI) with 5.2 kV ionization potential and 220° C. heated capillary temperature. The product ion spectra were generated under 24V collision energy, which was optimized for the fragmentation of Compound 1.” left out
# CYP3A4 = CYP3A4 (Homo sapiens, UniProt P08684); assay: Compound 1 metabolism / metabolite formation by recombinant CYP3A4; assay type: in vitro ADME; design: purchased Gentest Corp. (Woburn, Mass.); host or cells: insect cells (microsomal preparation); settings: recombinant CYP3A4; estimated by UV absorbance at 270 nm; metabolite formed or Compound 1 left after 1 hour with NADPH
# Method: as §1
# as §2, with “The MS was operated at positive electrospray ionization (ESI) with 5.2 kV ionization potential and 220° C. heated capillary temperature. The product ion spectra were generated under 24V collision energy, which was optimized for the fragmentation of Compound 1.” left out
# CYP1A1/2 = assay: CYP induction in primary human hepatocytes, Western immunoblotting: CYP1A1/2; assay type: cell-based; settings: TCDD 0.4 μM, 72 hours
# Method: Upon receiving a primary culture of human hepatocytes in 6-well plates, the culture medium containing streptomycin/penicillin was refreshed (2 ml/well). […] Compound 1 stock solution was added to the culture medium at a 1:400 ratio (v/v). The culture medium and testing compounds were replenished every 24 hours.
# At the end of the treatment, the cells were harvested into 1 mL of phosphate-buffered saline (PBS) after washing twice. The cells were precipitated by centrifugation, and were resuspended in PBS (approximately 50 μL). The sample preparation, after mixing with […] of Laemmli buffer (62.5 mM Tris-HCl containing 2% SDS, 25% glycerol, and 0.01% bromophenol, pH 6.8) and being rocked for 2-4 hours, was mixed with 10 μL of 2-mercaptoethanol, and heated at 90° C. for 10 minutes before electrophoresis.
# Proteins were resolved in a 12% SDS-PAGE gel using a mini gel apparatus at a constant voltage ([…]) for 70-80 minutes, and transferred onto a polyvinylidene difluoride (PVDF) membrane using a membrane-transferring unit at a constant voltage ([…]) for 60 minutes. The membrane was blocked by 5% non-fat dried milk (NFDM) blotting buffer (PBS containing 0.05% Tween 20) at 4° C. overnight. […] CYP proteins were detected by […] using an X-ray developer.
# Chain of CYP2C19 (P33261 whole entry): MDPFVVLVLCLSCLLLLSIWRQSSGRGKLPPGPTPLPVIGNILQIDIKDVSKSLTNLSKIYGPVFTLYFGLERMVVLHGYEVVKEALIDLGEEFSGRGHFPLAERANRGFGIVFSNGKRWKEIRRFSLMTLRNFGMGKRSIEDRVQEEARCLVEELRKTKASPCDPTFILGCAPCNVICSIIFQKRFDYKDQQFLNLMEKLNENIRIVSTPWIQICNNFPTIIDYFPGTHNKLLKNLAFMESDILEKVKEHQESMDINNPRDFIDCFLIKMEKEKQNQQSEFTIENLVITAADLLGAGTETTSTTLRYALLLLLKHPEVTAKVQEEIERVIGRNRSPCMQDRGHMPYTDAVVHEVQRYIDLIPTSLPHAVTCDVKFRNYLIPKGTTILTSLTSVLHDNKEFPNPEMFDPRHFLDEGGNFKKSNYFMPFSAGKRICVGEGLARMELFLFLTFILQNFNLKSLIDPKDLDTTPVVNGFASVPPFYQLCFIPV
# Chain of CYP2D6 (P10635 whole entry): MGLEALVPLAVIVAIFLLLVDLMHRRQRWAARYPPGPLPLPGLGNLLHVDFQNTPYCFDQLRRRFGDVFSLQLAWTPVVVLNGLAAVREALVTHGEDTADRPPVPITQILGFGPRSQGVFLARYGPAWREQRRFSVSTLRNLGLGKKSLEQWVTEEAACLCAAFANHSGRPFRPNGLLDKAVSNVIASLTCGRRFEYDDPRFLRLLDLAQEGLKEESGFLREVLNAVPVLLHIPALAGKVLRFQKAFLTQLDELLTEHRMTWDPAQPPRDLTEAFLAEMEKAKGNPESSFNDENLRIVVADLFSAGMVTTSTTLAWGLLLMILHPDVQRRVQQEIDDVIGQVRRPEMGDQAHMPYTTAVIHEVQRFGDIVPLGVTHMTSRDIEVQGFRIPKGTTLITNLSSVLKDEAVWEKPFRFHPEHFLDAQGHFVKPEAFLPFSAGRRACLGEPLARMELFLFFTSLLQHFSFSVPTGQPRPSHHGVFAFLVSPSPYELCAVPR
# Chain of CYP3A4 (P08684 whole entry): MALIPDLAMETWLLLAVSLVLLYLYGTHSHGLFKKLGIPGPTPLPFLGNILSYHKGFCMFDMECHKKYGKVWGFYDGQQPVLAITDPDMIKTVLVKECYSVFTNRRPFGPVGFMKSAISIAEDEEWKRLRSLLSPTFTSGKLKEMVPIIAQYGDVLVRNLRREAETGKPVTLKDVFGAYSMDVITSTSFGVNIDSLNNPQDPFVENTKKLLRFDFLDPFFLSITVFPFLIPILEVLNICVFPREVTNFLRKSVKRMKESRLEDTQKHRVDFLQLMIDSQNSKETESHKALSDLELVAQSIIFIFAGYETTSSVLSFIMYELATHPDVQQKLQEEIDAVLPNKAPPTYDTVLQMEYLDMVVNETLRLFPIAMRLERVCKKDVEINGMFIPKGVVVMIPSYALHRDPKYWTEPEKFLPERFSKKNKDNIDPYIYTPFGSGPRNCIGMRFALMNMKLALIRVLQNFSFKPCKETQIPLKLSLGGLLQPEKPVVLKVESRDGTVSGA
Rel. Amount (%) [1] [%],"formation of the metabolite from Compound 1 by CYP2C19 (in words) (CYP2C19; recombinant CYP2C19, NADPH)","Rel. Amount (%) (CYP2C19; recombinant CYP2C19, estimated by UV absorbance at 270 nm, metabolite formed or Compound 1 left after 1 hour with NADPH)",formation of the metabolite from Compound 1 by CYP2D6 (in words) (CYP2D6),Rel. Amount (%) (CYP3A4),SMILES,"expression of CYP1A1/2 (Western immunoblotting), positive control (CYP1A1/2)"
21,formed,20,formed,31,CNC(=O)Cc1ccc2ccn(C3CCNCC3)c2c1 [Compound M4],
,,,,,"Clc1cc2c(cc1Cl)Oc1cc(Cl)c(Cl)cc1O2 [TCDD, 2,3,7,8-tetrachlorodibenzo-p-dioxin, reference compound]",elevated expressions
